For the assay, the system named is P388/ADR leukemia. Description: NCI tumour cell line growth inhibition, 48 h.

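96-well plates; 48 h exposure; 5 concentrations. Endpoints by linear interpolation between flanking doses. Not reached: highest tested concentration assigned. TGI is the concentration that stops growth completely.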

In turn, `COC1/C=C/O[C@@]2(C)Oc3c(C)c(O)c4c(O)c(cc(O)c4c3C2=O)NC(=O)/C(C)=C\C=C\[C@H](C)C(O)[C@@H](C)[C@@H](O)[C@@H](C)[C@H](OC(C)=O)[C@@H]1C` (some centres not stated) returned a TGI of 59 µM. In the case of `O=C(Cn1ccnc1[N+](=O)[O-])N(CCO)CCO`, the TGI was > 1250 µM.
